From US20130131140A1, “TREATMENT OF DIABETES AND DISORDERS ASSOCIATED WITH VISCERAL OBESITY WITH INHIBITORS OF HUMAN ARACHIDONATE 12 LIPOXYGENASE AND ARACHIDONATE 15-LIPOXYGENASE” (priority 2010, published 2013)
Entries after “also recorded” stand apart in the source; their conditions may differ.

How the values were obtained:
human islets [1] = assay: Cell death by propidium iodide (PI) fluorescence; assay type: cell-based; conditions: for cell death, PI staining intensity: overnight incubation
Description: Islets were treated with 20 μg/ml of propidium iodide (PI) and incubated for 10 minutes. Islets were imaged once under brightfield illumination to determine the islet borders and imaged again to measure PI fluorescence using 535-nm excitation and 617-nm emission as previously reported (11). Islets were circled, and the mean PI fluorescence intensity was determined for each islet individually. Three separate trials from three donors were conducted.
Islet cell death was evaluated by PI staining in islets after overnight incubation with 1, 10, or 100 nM 12(S)-HETE. […] This finding is consistent with dose-response measures of cell death previously observed with mouse islets (8).

p38-MAPK = assay: Western immunoblot of phosphorylated p38-MAPK in human islets; assay type: cell-based
Source text: (§1) Equal amounts of whole islet cell protein extracts were separated on polyacrylamide-sodium dodecyl sulfate gels and transferred to polyvinylidene difluoride transfer membranes (GE Healthcare, Buckinghamshire, UK). The blots were probed with primary antibodies, and bands were detected using horseradish […] secondary antibodies (GE Healthcare UK Limited, Chalfont, UK) and the enhanced chemiluminescence detection system (GE Healthcare).
(§2) Rabbit PAb anti-p38-MAPK (pTpY180/182) and anti-c-Jun N-terminal kinase (JNK)-1 and -2 (pTpY183/185) were purchased from Alpha BioSource/Invitrogen and were used at a 1:500 dilution. Mouse monoclonal anti-p38-MAPK (A-12) and rabbit polyclonal anti-actin (1-19) were purchased from Santa Cruz Biotechnology (Santa Cruz, Calif.). p38-MAPK was used at a 1:500 dilution, and actin was used at a 1:2500 dilution. Rabbit anti-12-LO (see Ref. 8) was used at a 1:1000 dilution.
(§3) To determine whether treating islets with 12(S)-HETE would affect the activity of two well-known stress-mediated pathways linked to β-cell damage, p38-MAPK and JNK in human islets, were investigated. […] The results are presented as the means±SD. *, P<0.05 compared with the corresponding control; #, P<0.05 compared with the cytokine treatment group.

JNK-1 and -2 = assay: Western immunoblot of phosphorylated JNK in human islets; assay type: cell-based; conditions: human islets treated with 12(S)-HETE
Source text: as §1, §2, §3

human islets [2] = assay: Glucose-stimulated insulin secretion in human islets; assay type: cell-based; conditions: for effect on insulin secretion: human islets, 1 and 100 nM, 4 hours incubation, then 1 hour in 11 mM glucose
Description: In other studies, human islets were cultured in CMRL medium-1066 (Invitrogen) with 5% fetal bovine serum overnight and then transitioned to serum free Kreb-Ringer buffer at 37° C., and islets were incubated with and without HETEs in 3 and 18 mM glucose for 4 hours, as shown in FIG. 12. The supernatant was collected after each treatment, and insulin concentration in the supernatant was measured by an enzyme immunoassay method (Mercodia, Uppsala, Sweden) with a mouse or human insulin standard. The intraassay variation was less than 4%, and the interassay variation was less than 10%.
LOs catalyze the oxidation of linoleic acid and arachidonic acid, generating products of varying stability. […] Referring to FIGS. 13A and 13B, 12(S)-HETE, 15(S)-HETE, 12-HPETE, and 12-RHETE were tested at 1 and 100 nM doses to examine their effects on insulin secretion. Human islets were incubated with the various HETEs for 4 hours and then assessed for insulin secretion during a 1-hour period incubated in 11 mM glucose. Also confirmed were the effects of 12(S)-HETE on basal (3 mM) and stimulated (18 mM) glucose concentration.

human islets [3] = conditions: 50 μm LSF overnight pretreatment, then 1 nm 12(S)-HETE 4 hours
Description: Viability was assessed by detecting 3-(4,5-dimethylthiazol-2-yl)-2,5-diphenyltetrazolium bromide (MTT; Sigma-Aldrich) metabolism as previously described (17).
Human islets from four different human donors were pretreated with 50 μm LSF overnight or untreated as indicated. Islets were then treated with 1 nm 12(S)-HETE for 4 hours and incubated in 11 mm glucose for 1 hour to measure islet metabolic activity by MTT assay (A) or insulin secretion (B).

[4] = human islets treated with 12(S)-HETE

For `CCCCC/C=C\C[C@@H](O)/C=C/C=C\C/C=C\CCCC(=O)O` [12(S)-HETE, 12-hydroxyeicosatetraenoic acid], the “increase in cell death” value (human islets [1]; 100 nM) was 50%, the “cell death, PI staining intensity” value (human islets [1]; 100 nM) was “significant increase in cell death” and the “cell death, PI staining intensity” value (human islets [1]; 1 or 10 nM) was “no significant increase in cell death”. The “phosphorylated p38 (pp38) protein activity” value (p38-MAPK; [4]) was “increased phosphorylated p38”, the “total p38-MAPK (p38)” value (p38-MAPK; [4]) was “without any change” and the “phosphorylated JNK (ppJNK1 and -2) activity” value (JNK-1 and -2) was “not affected”. The “effect on insulin secretion” value (human islets [2]) was “consistently reduced; also recorded: most substantial reduction in insulin secretion”.
With `CCCCC/C=C\CC(/C=C/C=C\C/C=C\CCCC(=O)O)OO` (stereo not drawn) [12-HPETE, 12-hydroperoxyeicosatetraenoic acid] the “effect on insulin secretion” value (human islets [2]) was “consistently reduced” and the “effect on insulin secretion” value (human islets [2]; listed as 12(S)HPETE) was “most substantial reduction in insulin secretion”.
For `N#CC(=Cc1ccc(O)c(O)c1)C(=O)OCC=Cc1ccccc1` [CDC, cinnamyl-3,4-dihydroxy-α-cyanocinnamate], the “cytokine-induced pp38-MAPK activity” value (p38-MAPK; human islets pretreated with CDC, cytokines TNF-α, IFN-γ, IL-1β) was “significantly reduced; also recorded: blocked”.
For `C[C@@H](O)CCCCn1c(=O)c2c(ncn2C)n(C)c1=O` [LSF, Lisofylline], the “reversal of 12(S)-HETE effects on metabolic activity (MTT assay)” value (human islets [3]) was “partially reversed” and the “reversal of 12(S)-HETE-induced reduction in insulin secretion” value (human islets [2]; 50 μm LSF overnight pretreatment, then 1 nm 12(S)-HETE 4 hours, 11 mm glucose 1 hour) was “reversed”.
